# Assay results from patent US20040173696A1, “Milling microgram quantities of nanoparticulate candidate compounds” (Elan Pharma International Ltd., priority 2002, published 2004).
# Where two headings read alike, the source gives them in different places.
# Key:
# [1] = 24-well, 48 hours
# Procedure: In this example 0.8 mm media was used.
# Naproxen and hydroxypropyllcellulose (HPC-SL) as a surface stabilizer were combined at a drug:stabilizer ratio of 4:1. Samples of the composition and grinding media, as shown in the table below, were added to the wells of a 24-well microplate One well was used for each condition. The microplate was then agitated at the maximum sustainable speed using an orbital shaking platform driven by a standard laboratory magnetic stirring device. After 48 hours the average particle size of naproxen was estimated by light microscopy.
# [2] = 48-well, 0.5 g 0.8 mm media, 0.125 ml slurry, HPC-SL 4:1, 48 hours
# Procedure: Naproxen and hydroxypropyllcellulose (HPC-SL) as a surface stabilizer were combined at a drug:stabilizer ratio of 4:1. Samples of the composition and grinding media, as shown in the table below, were added to the wells of a 48-well microplate. One well was used for each condition. The microplate was then agitated at the maximum sustainable speed using an orbital shaking platform driven by a standard laboratory magnetic stirring device. After 48 hours, the average particle size of naproxen was estimated by light microscopy.
smiles,measurement,setting,value
COc1ccc2cc([C@H](C)C(=O)O)ccc2c1 [Naproxen],Average Particle Size of Naproxen,"[1]; 0.25 mg drug, 1 g 0.8 mm media, 0.25 ml slurry, HPC-SL 4:1","<1 μm,"
same,Average Particle Size of Naproxen,"[1]; 0.5 mg drug, 2 g 0.8 mm media, 0.5 ml slurry, HPC-SL 4:1","<1 μm,"
same,Average Particle Size of Naproxen,"[1]; 1.25 mg drug, 1 g 0.8 mm media, 0.25 ml slurry, HPC-SL 4:1","<1 μm,"
same,Average Particle Size of Naproxen,"[1]; 2.5 mg drug, 1 g 0.8 mm media, 0.25 ml slurry, HPC-SL 4:1",<0.5 μm
same,Average Particle Size of Naproxen,"[1]; 5 mg drug, 1 g 0.8 mm media, 0.25 ml slurry, HPC-SL 4:1",<0.5 μm
same,Average Particle Size of Naproxen,"[1]; 10 mg drug, 2 g 0.8 mm media, 0.5 ml slurry, HPC-SL drug:stabilizer 4:1",<0.5 μm
same,Average Particle Size,[2]; 0.125 mg drug,<1 μm
same,Average Particle Size,[2]; 0.625 mg drug,<1 μm
same,Average Particle Size,[2]; 1.25 mg drug,<0.5 μm
same,Average Particle Size,[2]; 2.5 mg drug,<0.5 μm
